Values after ≈ are worked out from the molar mass of the structure shown. Where two headings read alike, the source gives them in different places.
Tests used:
a large number of fungi = test: conventional antifungal screening test, in vitro, Sabourand broth medium; assay type: cell-based
Candida albicans = test: mouse Candida albicans oral infection model; assay type: in vivo; details: compared to ketoconazole
six strains of Candida = test: in vitro antifungal activity (MIC) in Eagles medium; assay type: cell-based; details: for MIC: six strains of Candida

| Compound | in vitro activity against a large number of fungi (a large number of fungi) | preventive dosage required for survival of 100% of the test animals (Candida albicans) | in vitro activity against six strains of Candida compared to ketoconazole (six strains of Candida) | MIC (six strains of Candida; after 48 hours, read-out: mean Minimum Inhibitory Concentration (MIC)) [µg/mL] | MIC (six strains of Candida; read-out: MIC) [µg/mL] |
| --- | --- | --- | --- | --- | --- |
| Fc1ccc(C(F)(Cn2cncn2)Cn2cncn2)c(F)c1 [compound of this invention, 1,3-Bis(1H-1,2,4-triazol-1-yl)-2-(2,4-difluorophenyl)-2-fluoro-propane] | negligible in vitro activity | lower than that required for ketoconazole | significantly lower in vitro activity | 4 (≈ 13 µM) | – |
| CC(=O)N1CCN(c2ccc(OCC3COC(Cn4ccnc4)(c4ccc(Cl)cc4Cl)O3)cc2)CC1 (stereo not drawn) [ketoconazole, reference compound] | negligible in vitro activity | – | – | – | < 0.031 |

— patent EP0178682A2, “1,3-Bis(1H-1,2,4-triazol-1-yl)-2-fluoro-2-(2,4-difluorophenyl)propane, antifungal composition containing it, and process for preparation of the compound and the composition” (SCHERING CORPORATION, priority 1984, dated 1986)
